Where two headings read alike, the source gives them in different places.
What was measured:
Test in all cases: KINOMEscan assay (Eurofins DiscoverX)
Assay type in all cases: binding
kinome (kinase panel) [1] = molecular target: T1, kinome (kinase panel) (Homo sapiens, UniProt Q9NYL2); settings: ZAK; 1000 nM; read-out: Percent Control
T1 construct: purchased Eurofins DiscoverX

kinome (kinase panel) [2] = molecular target: T2, kinome (kinase panel) (Homo sapiens, UniProt Q99755); settings: PIP5K1A; 1000 nM; read-out: Percent Control
T2 construct: purchased Eurofins DiscoverX

kinome (kinase panel) [3] = molecular target: T3, kinome (kinase panel) (Homo sapiens, UniProt Q5S007, G2019S); settings: read-out: Percent Control
T3 construct: purchased Eurofins DiscoverX

kinome (kinase panel) [4] = molecular target: T4, kinome (kinase panel) (Homo sapiens, UniProt Q92918); settings: HPK1 (Entrez MAP4K1); 1000 nM; read-out: Percent Control
T4 construct: purchased Eurofins DiscoverX

kinome (kinase panel) [5] = molecular target: T5, kinome (kinase panel) (Homo sapiens, UniProt P00533, G719S); settings: […]; 1000 nM; read-out: Percent Control
T5 construct: purchased Eurofins DiscoverX
T5 sequence (P00533 25-1210 G719S): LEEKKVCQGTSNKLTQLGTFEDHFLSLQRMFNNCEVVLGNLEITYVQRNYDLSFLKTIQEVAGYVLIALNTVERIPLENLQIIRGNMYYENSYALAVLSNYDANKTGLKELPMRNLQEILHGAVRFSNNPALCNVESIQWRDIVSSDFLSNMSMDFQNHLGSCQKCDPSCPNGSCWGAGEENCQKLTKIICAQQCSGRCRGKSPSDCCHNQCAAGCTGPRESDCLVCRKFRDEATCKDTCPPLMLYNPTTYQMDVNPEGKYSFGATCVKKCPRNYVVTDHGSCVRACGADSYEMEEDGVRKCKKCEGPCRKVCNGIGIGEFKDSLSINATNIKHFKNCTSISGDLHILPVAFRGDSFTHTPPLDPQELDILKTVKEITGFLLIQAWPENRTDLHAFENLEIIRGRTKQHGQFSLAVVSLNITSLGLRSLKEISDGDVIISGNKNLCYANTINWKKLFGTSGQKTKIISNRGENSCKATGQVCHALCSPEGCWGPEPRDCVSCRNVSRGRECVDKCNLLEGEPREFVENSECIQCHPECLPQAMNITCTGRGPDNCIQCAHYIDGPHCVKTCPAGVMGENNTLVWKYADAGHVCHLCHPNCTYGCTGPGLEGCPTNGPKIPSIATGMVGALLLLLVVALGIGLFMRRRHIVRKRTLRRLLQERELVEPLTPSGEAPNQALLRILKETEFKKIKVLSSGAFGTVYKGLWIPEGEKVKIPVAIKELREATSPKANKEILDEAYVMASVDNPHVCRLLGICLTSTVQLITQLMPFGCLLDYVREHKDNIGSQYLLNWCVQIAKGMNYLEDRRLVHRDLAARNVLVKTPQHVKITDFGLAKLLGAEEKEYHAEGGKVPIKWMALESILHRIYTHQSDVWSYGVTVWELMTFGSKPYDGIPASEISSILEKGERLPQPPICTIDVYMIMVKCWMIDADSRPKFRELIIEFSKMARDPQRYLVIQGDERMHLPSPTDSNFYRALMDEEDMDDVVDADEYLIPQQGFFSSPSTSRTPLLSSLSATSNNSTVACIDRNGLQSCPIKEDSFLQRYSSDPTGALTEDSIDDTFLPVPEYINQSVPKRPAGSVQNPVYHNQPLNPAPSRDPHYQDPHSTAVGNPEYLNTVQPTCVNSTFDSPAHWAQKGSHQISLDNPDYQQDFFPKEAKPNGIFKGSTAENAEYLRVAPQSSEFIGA

kinome (kinase panel) [6] = molecular target: T6, kinome (kinase panel) (Homo sapiens, UniProt Q9HCP0); settings: CSNK1G1; 1000 nM; read-out: Percent Control
T6 construct: purchased Eurofins DiscoverX
T6 sequence (Q9HCP0 whole entry): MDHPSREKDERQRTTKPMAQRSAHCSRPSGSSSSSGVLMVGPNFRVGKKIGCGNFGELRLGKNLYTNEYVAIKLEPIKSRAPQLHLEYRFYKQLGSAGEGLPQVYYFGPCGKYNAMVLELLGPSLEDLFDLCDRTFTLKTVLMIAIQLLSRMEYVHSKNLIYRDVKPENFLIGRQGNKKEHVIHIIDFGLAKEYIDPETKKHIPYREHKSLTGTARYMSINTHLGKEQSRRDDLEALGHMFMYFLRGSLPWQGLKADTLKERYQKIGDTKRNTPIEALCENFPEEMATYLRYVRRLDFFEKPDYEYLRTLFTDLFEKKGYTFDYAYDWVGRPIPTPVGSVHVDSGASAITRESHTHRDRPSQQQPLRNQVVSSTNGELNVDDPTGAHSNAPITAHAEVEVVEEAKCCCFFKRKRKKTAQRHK

kinome (kinase panel) [7] = molecular target: T7, kinome (kinase panel) (Homo sapiens, UniProt P51451); settings: BLK; 1000 nM; read-out: Percent Control
T7 construct: purchased Eurofins DiscoverX
T7 sequence (P51451 whole entry): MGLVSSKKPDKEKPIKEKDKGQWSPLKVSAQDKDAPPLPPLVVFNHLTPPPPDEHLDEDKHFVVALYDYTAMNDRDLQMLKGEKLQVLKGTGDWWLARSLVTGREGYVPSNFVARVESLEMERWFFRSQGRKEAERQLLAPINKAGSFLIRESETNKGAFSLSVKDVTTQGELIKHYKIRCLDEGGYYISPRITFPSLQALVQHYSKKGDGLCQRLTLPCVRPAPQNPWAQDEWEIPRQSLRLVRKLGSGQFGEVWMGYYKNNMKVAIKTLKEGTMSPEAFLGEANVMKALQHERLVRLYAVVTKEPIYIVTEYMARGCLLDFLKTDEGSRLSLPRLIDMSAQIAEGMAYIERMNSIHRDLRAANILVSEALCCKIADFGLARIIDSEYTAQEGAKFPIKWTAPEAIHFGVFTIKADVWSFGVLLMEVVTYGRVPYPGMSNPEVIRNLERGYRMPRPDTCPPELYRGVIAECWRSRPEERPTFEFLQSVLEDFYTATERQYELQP

kinome (kinase panel) [8] = molecular target: T8, kinome (kinase panel) (Homo sapiens, UniProt P51817); settings: PRKX; 1000 nM; read-out: Percent Control
T8 construct: purchased Eurofins DiscoverX

kinome (kinase panel) [9] = molecular target: T9, kinome (kinase panel) (Homo sapiens, UniProt O15197); settings: EPHB6; 1000 nM; read-out: Percent Control
T9 construct: purchased Eurofins DiscoverX

kinome (kinase panel) [10] = molecular target: T10, kinome (kinase panel) (Homo sapiens, UniProt Q9NSY1); settings: BIKE (Entrez BMP2K); 1000 nM; read-out: Percent Control
T10 construct: purchased Eurofins DiscoverX

kinome (kinase panel) [11] = molecular target: T11, kinome (kinase panel) (Homo sapiens, UniProt O75747); settings: PIK3C2G; 1000 nM; read-out: Percent Control
T11 construct: purchased Eurofins DiscoverX

kinome (kinase panel) [12] = molecular target: T12, kinome (kinase panel) (Homo sapiens, UniProt P36888, D835Y); settings: […]; 1000 nM; read-out: Percent Control
T12 construct: purchased Eurofins DiscoverX

kinome (kinase panel) [13] = molecular target: T13, kinome (kinase panel) (Homo sapiens, UniProt P45984); settings: JNK2 (Entrez MAPK9); 1000 nM; read-out: Percent Control
T13 construct: purchased Eurofins DiscoverX
T13 sequence (P45984 whole entry): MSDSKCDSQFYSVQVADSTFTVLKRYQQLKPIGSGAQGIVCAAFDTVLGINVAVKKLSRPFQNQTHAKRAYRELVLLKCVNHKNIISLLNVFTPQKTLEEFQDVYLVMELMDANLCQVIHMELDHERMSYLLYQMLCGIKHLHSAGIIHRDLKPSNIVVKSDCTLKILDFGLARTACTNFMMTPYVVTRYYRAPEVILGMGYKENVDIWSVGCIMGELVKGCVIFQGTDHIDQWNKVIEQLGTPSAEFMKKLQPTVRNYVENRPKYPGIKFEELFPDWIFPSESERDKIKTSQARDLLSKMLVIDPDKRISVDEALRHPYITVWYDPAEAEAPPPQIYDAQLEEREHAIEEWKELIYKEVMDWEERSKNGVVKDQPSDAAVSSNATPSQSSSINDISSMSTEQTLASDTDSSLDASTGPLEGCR

kinome (kinase panel) [14] = molecular target: T14, kinome (kinase panel) (Homo sapiens, UniProt Q9H2K8); settings: TAOK3; 1000 nM; read-out: Percent Control
T14 construct: purchased Eurofins DiscoverX

kinome (kinase panel) [15] = molecular target: T15, kinome (kinase panel) (Homo sapiens, UniProt Q9UM73, L1196M); settings: […]; 1000 nM; read-out: Percent Control
T15 construct: purchased Eurofins DiscoverX

kinome (kinase panel) [16] = molecular target: T16, kinome (kinase panel) (Homo sapiens, UniProt P42336, Q546K); settings: read-out: Percent Control
T16 construct: purchased Eurofins DiscoverX

kinome (kinase panel) [17] = molecular target: T17, kinome (kinase panel) (Homo sapiens, UniProt Q8NEV4); settings: MYO3A; 1000 nM; read-out: Percent Control
T17 construct: purchased Eurofins DiscoverX

kinome (kinase panel) [18] = molecular target: T18, kinome (kinase panel) (Homo sapiens, UniProt Q14164); settings: IKK-epsilon (Entrez IKBKE); 1000 nM; read-out: Percent Control
T18 construct: purchased Eurofins DiscoverX

kinome (kinase panel) [19] = molecular target: T19, kinome (kinase panel) (Homo sapiens, UniProt P41240); settings: CSK; 1000 nM; read-out: Percent Control
T19 construct: purchased Eurofins DiscoverX

kinome (kinase panel) [20] = molecular target: T20, kinome (kinase panel) (Homo sapiens, UniProt P10721, V559D/V654A); settings: read-out: Percent Control
T20 construct: purchased Eurofins DiscoverX

kinome (kinase panel) [21] = molecular target: T21, kinome (kinase panel) (Homo sapiens, UniProt Q13873); settings: BMPR2; 1000 nM; read-out: Percent Control
T21 construct: purchased Eurofins DiscoverX
T21 sequence (Q13873 27-1038): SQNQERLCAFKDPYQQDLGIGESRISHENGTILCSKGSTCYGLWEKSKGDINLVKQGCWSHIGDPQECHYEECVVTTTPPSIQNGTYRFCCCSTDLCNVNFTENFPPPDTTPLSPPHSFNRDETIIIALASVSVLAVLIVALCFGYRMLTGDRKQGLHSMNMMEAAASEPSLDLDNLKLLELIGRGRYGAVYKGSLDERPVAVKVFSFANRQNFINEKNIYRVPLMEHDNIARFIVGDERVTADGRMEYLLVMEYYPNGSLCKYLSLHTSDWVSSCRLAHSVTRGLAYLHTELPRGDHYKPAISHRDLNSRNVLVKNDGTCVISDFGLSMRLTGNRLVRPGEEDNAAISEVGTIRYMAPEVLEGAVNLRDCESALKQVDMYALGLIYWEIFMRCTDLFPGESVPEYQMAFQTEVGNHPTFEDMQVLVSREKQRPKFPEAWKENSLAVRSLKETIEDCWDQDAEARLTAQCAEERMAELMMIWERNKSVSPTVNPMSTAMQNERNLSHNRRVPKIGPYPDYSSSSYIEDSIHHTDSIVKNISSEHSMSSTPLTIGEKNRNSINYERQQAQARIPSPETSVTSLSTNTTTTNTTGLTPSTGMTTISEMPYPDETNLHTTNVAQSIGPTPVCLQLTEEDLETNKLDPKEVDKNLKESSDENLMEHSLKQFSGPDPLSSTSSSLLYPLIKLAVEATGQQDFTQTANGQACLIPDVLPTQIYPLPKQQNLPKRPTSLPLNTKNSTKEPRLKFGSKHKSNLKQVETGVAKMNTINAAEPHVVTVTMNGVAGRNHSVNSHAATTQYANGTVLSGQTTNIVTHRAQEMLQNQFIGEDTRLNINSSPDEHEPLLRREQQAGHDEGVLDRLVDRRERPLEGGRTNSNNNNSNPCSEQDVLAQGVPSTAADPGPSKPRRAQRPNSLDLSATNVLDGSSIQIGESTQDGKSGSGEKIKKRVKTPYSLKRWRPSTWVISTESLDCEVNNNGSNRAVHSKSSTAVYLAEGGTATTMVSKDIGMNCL

kinome (kinase panel) [22] = molecular target: T22, kinome (kinase panel) (Homo sapiens, UniProt P31152); settings: ERK4 (Entrez MAPK4); 1000 nM; read-out: Percent Control
T22 construct: purchased Eurofins DiscoverX
T22 sequence (P31152 whole entry): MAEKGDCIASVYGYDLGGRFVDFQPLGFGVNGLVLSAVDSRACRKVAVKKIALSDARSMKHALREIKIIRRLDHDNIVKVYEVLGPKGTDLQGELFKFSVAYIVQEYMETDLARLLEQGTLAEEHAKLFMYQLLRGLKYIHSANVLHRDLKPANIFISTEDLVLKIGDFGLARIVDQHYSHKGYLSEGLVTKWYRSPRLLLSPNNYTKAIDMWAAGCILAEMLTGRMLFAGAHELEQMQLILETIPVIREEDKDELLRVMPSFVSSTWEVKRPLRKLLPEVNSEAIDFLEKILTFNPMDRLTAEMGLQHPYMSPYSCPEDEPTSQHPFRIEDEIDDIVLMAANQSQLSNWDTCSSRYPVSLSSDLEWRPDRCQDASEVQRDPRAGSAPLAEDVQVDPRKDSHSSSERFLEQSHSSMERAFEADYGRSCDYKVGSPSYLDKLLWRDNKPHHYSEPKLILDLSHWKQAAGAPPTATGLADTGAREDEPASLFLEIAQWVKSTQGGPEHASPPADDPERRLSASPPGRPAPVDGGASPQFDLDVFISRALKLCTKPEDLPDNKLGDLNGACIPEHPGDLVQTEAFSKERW

kinome (kinase panel) [23] = molecular target: T23, kinome (kinase panel) (Homo sapiens, UniProt Q6DT37); settings: DMPK2 (Entrez CDC42BPG); 1000 nM; read-out: Percent Control
T23 construct: purchased Eurofins DiscoverX

kinome (kinase panel) [24] = molecular target: T24, kinome (kinase panel) (Homo sapiens, UniProt O96017); settings: CHEK2; 1000 nM; read-out: Percent Control
T24 construct: purchased Eurofins DiscoverX

kinome (kinase panel) [25] = molecular target: T25, kinome (kinase panel) (Homo sapiens, UniProt Q02779); settings: MLK2 (Entrez MAP3K10); 1000 nM; read-out: Percent Control
T25 construct: purchased Eurofins DiscoverX

kinome (kinase panel) [26] = molecular target: T26, kinome (kinase panel) (Homo sapiens, UniProt Q8IVW4); settings: CDKL3; 1000 nM; read-out: Percent Control
T26 construct: purchased Eurofins DiscoverX

kinome (kinase panel) [27] = molecular target: T27, kinome (kinase panel) (Homo sapiens, UniProt Q9UQ88); settings: CDC2L2; 1000 nM; read-out: Percent Control
T27 construct: purchased Eurofins DiscoverX

kinome (kinase panel) [28] = molecular target: T28, kinome (kinase panel) (Homo sapiens, UniProt P00519, Y253F); settings: read-out: Percent Control
T28 construct: purchased Eurofins DiscoverX

kinome (kinase panel) [29] = molecular target: T29, kinome (kinase panel) (Homo sapiens, UniProt P42336, E542K); settings: read-out: Percent Control
T29 construct: purchased Eurofins DiscoverX

kinome (kinase panel) [30] = molecular target: T30, kinome (kinase panel) (Homo sapiens, UniProt Q96GD4); settings: AURKB; 1000 nM; read-out: Percent Control
T30 construct: purchased Eurofins DiscoverX
T30 sequence (Q96GD4 whole entry): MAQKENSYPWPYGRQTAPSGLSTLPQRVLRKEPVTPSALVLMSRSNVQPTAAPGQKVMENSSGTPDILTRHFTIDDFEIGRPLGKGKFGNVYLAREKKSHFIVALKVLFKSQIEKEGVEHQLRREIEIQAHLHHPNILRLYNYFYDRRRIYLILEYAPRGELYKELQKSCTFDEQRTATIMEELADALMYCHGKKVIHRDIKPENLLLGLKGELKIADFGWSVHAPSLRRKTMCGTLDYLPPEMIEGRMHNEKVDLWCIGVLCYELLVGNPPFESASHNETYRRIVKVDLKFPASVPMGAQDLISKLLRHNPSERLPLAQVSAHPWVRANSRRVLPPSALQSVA

kinome (kinase panel) [31] = molecular target: T31, kinome (kinase panel) (Homo sapiens, UniProt Q9NWZ3); settings: IRAK4; 1000 nM; read-out: Percent Control
T31 construct: purchased Eurofins DiscoverX
T31 sequence (Q9NWZ3 whole entry): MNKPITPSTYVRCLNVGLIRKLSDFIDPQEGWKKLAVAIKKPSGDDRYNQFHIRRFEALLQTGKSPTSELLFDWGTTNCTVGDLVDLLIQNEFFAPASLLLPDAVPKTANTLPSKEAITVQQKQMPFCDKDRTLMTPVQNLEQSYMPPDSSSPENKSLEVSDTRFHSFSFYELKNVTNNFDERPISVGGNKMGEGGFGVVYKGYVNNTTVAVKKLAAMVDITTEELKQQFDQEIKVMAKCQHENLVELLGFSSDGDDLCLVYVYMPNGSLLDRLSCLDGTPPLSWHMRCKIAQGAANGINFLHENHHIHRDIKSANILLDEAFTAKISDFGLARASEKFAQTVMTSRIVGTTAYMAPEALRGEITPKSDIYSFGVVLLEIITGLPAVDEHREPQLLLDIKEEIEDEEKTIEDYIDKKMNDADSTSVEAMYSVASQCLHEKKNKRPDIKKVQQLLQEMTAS

kinome (kinase panel) [32] = molecular target: T32, kinome (kinase panel) (Homo sapiens, UniProt P00519); settings: 1000 nM, read-out: Percent Control
T32 construct: purchased Eurofins DiscoverX

kinome (kinase panel) [33] = molecular target: T33, kinome (kinase panel) (Homo sapiens, UniProt Q9NYY3); settings: PLK2; 1000 nM; read-out: Percent Control
T33 construct: purchased Eurofins DiscoverX

Structure (SMILES): CN(C)C(=O)c1cc2cnc(Nc3ccc(-c4csc5c(=O)cc(N6CCOCC6)oc45)cc3)nc2n1C1CCCC1 [SRX3177]
- remaining binding at 1 µM (kinome (kinase panel) [1]): 80%
- remaining binding at 1 µM (kinome (kinase panel) [2]): 21%
- remaining binding at 1 µM (kinome (kinase panel) [3]): 44%
- remaining binding at 1 µM (kinome (kinase panel) [4]): 100%
- remaining binding at 1 µM (kinome (kinase panel) [5]): 78%
- remaining binding at 1 µM (kinome (kinase panel) [6]): 82%
- remaining binding at 1 µM (kinome (kinase panel) [7]): 100%
- remaining binding at 1 µM (kinome (kinase panel) [8]): 96%
- remaining binding at 1 µM (kinome (kinase panel) [9]): 4.9%
- remaining binding at 1 µM (kinome (kinase panel) [10]): 10%
- remaining binding at 1 µM (kinome (kinase panel) [11]): 100%
- remaining binding at 1 µM (kinome (kinase panel) [12]): 83%
- remaining binding at 1 µM (kinome (kinase panel) [13]): 47%
- remaining binding at 1 µM (kinome (kinase panel) [14]): 2.5%
- remaining binding at 1 µM (kinome (kinase panel) [15]): 84%
- remaining binding at 1 µM (kinome (kinase panel) [16]): 41%
- remaining binding at 1 µM (kinome (kinase panel) [17]): 97%
- remaining binding at 1 µM (kinome (kinase panel) [18]): 51%
- remaining binding at 1 µM (kinome (kinase panel) [19]): 100%
- remaining binding at 1 µM (kinome (kinase panel) [20]): 100%
- remaining binding at 1 µM (kinome (kinase panel) [21]): 78%
- remaining binding at 1 µM (kinome (kinase panel) [22]): 96%
- remaining binding at 1 µM (kinome (kinase panel) [23]): 91%
- remaining binding at 1 µM (kinome (kinase panel) [24]): 94%
- remaining binding at 1 µM (kinome (kinase panel) [25]): 100%
- remaining binding at 1 µM (kinome (kinase panel) [26]): 91%
- remaining binding at 1 µM (kinome (kinase panel) [27]): 93%
- remaining binding at 1 µM (kinome (kinase panel) [28]): 72%
- remaining binding at 1 µM (kinome (kinase panel) [29]): 40%
- remaining binding at 1 µM (kinome (kinase panel) [30]): 4.9%
- remaining binding at 1 µM (kinome (kinase panel) [31]): 45%
- remaining binding at 1 µM (kinome (kinase panel) [32]; ABL1-nonphosphorylated): 78%
- remaining binding at 1 µM (kinome (kinase panel) [32]; ABL1-phosphorylated): 63%
- remaining binding at 1 µM (kinome (kinase panel) [33]): 86%

From PMC7385619, “A triple action CDK4/6-PI3K-BET inhibitor with augmented cancer cell cytotoxicity” (Cell Discovery, 2020)
